Data taken from US20140288074A1, “FUNGICIDAL PYRAZOLES” (E I DU PONT DE NEMOURS AND COMPANY, priority 2013, published 2014).

Assays:
Type in all cases: in vivo
[1] = test system: Botrytis cinerea; experiment: Test A: preventive spray on tomato seedlings, tomato Botrytis, visual disease rating; conditions: 200 ppm test suspension, Botrytis cinerea inoculated the day after spraying; for pest or weed control at 200 ppm: 120 h
Protocol: General protocol for preparing test suspensions for Tests A-G: the test compounds were first dissolved in acetone in an amount equal to 3% of the final volume and then suspended at the desired concentration (in ppm) in acetone and purified water (50/50 mix by volume) containing 250 ppm of the surfactant Trem® 014 (polyhydric alcohol esters). The resulting test suspensions were then used in Tests A-G. Each test was conducted in triplicate, and the results were averaged. Spraying a 200 ppm test suspension to the point of run-off on the test plants was the equivalent of a rate of 800 g/ha. Unless otherwise indicated, the rating values indicate a 200 ppm test suspension was used. (An asterisk “*” next to the rating value indicates a 40 ppm test suspension was used.) The test suspension was sprayed to the point of run-off on tomato seedlings. The following day the seedlings were inoculated with a spore suspension of Botrytis cinerea (the causal agent of tomato Botrytis) and incubated in saturated atmosphere at 20° C. for 48 h, and then moved to a growth chamber at 24° C. for 3 additional days, after which time visual disease ratings were made. Results for Tests A-G are given in Table A. In the Table, a rating of 100 indicates 100% disease control and a rating of 0 indicates no disease control (relative to the controls). A hyphen (-) indicates no test results.

[2] = test system: Septoria nodorum; experiment: Test C: preventive spray on wheat seedlings, Septoria glume blotch, visual disease rating; conditions: 200 ppm test suspension, Septoria nodorum inoculated the day after spraying; for pest or weed control at 200 ppm: Parastagonospora nodorum, 264 h
Protocol: General protocol for preparing test suspensions for Tests A-G: the test compounds were first dissolved in acetone in an amount equal to 3% of the final volume and then suspended at the desired concentration (in ppm) in acetone and purified water (50/50 mix by volume) containing 250 ppm of the surfactant Trem® 014 (polyhydric alcohol esters). The resulting test suspensions were then used in Tests A-G. Each test was conducted in triplicate, and the results were averaged. Spraying a 200 ppm test suspension to the point of run-off on the test plants was the equivalent of a rate of 800 g/ha. Unless otherwise indicated, the rating values indicate a 200 ppm test suspension was used. (An asterisk “*” next to the rating value indicates a 40 ppm test suspension was used.) The test suspension was sprayed to the point of run-off on wheat seedlings. The following day the seedlings were inoculated with a spore suspension of Septoria nodorum (the causal agent of Septoria glume blotch) and incubated in a saturated atmosphere at 24° C. for 48 h, and then moved to a growth chamber at 20° C. for 9 days, after which time visual disease ratings were made. Results for Tests A-G are given in Table A. In the Table, a rating of 100 indicates 100% disease control and a rating of 0 indicates no disease control (relative to the controls). A hyphen (-) indicates no test results.

[3] = test system: Septoria tritici; experiment: Test D: preventive spray on wheat seedlings, wheat leaf blotch, visual disease rating; conditions: 200 ppm test suspension, Septoria tritici inoculated the day after spraying; for pest or weed control at 200 ppm: Zymoseptoria tritici, 504 h
Protocol: General protocol for preparing test suspensions for Tests A-G: the test compounds were first dissolved in acetone in an amount equal to 3% of the final volume and then suspended at the desired concentration (in ppm) in acetone and purified water (50/50 mix by volume) containing 250 ppm of the surfactant Trem® 014 (polyhydric alcohol esters). The resulting test suspensions were then used in Tests A-G. Each test was conducted in triplicate, and the results were averaged. Spraying a 200 ppm test suspension to the point of run-off on the test plants was the equivalent of a rate of 800 g/ha. Unless otherwise indicated, the rating values indicate a 200 ppm test suspension was used. (An asterisk “*” next to the rating value indicates a 40 ppm test suspension was used.) The test suspension was sprayed to the point of run-off on wheat seedlings. The following day the seedlings were inoculated with a spore suspension of Septoria tritici (the causal agent of wheat leaf blotch) and incubated in saturated atmosphere at 24° C. for 48 h. and then the seedlings were moved to a growth chamber at 20° C. for 19 additional days, after which time visual disease ratings were made. Results for Tests A-G are given in Table A. In the Table, a rating of 100 indicates 100% disease control and a rating of 0 indicates no disease control (relative to the controls). A hyphen (-) indicates no test results.

[4] = test system: Puccinia recondita f. sp. tritici; experiment: Test F: preventive spray on wheat seedlings, wheat leaf rust, visual disease rating; conditions: 200 ppm test suspension, Puccinia recondita f. sp. tritici inoculated the day after spraying; for pest or weed control at 200 ppm: 168 h
Protocol: General protocol for preparing test suspensions for Tests A-G: the test compounds were first dissolved in acetone in an amount equal to 3% of the final volume and then suspended at the desired concentration (in ppm) in acetone and purified water (50/50 mix by volume) containing 250 ppm of the surfactant Trem® 014 (polyhydric alcohol esters). The resulting test suspensions were then used in Tests A-G. Each test was conducted in triplicate, and the results were averaged. Spraying a 200 ppm test suspension to the point of run-off on the test plants was the equivalent of a rate of 800 g/ha. Unless otherwise indicated, the rating values indicate a 200 ppm test suspension was used. (An asterisk “*” next to the rating value indicates a 40 ppm test suspension was used.) The test suspension was sprayed to the point of run-off on wheat seedlings. The following day the seedlings were inoculated with a spore suspension of Puccinia recondita f. sp. tritici (the causal agent of wheat leaf rust) and incubated in a saturated atmosphere at 20° C. for 24 h, and then moved to a growth chamber at 20° C. for 6 days, after which time visual disease ratings were made. Results for Tests A-G are given in Table A. In the Table, a rating of 100 indicates 100% disease control and a rating of 0 indicates no disease control (relative to the controls). A hyphen (-) indicates no test results.

[5] = test system: Blumeria graminis f. sp. tritici; experiment: Test G: preventive spray on wheat seedlings, wheat powdery mildew, visual disease rating;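 for all read-outs here: rated 8 days after spore dust inoculation at 20 °C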; conditions: 200 ppm test suspension, Blumeria graminis f. sp. tritici inoculated the day after spraying; for pest or weed control at 200 ppm: 192 h
Protocol: General protocol for preparing test suspensions for Tests A-G: the test compounds were first dissolved in acetone in an amount equal to 3% of the final volume and then suspended at the desired concentration (in ppm) in acetone and purified water (50/50 mix by volume) containing 250 ppm of the surfactant Trem® 014 (polyhydric alcohol esters). The resulting test suspensions were then used in Tests A-G. Each test was conducted in triplicate, and the results were averaged. Spraying a 200 ppm test suspension to the point of run-off on the test plants was the equivalent of a rate of 800 g/ha. Unless otherwise indicated, the rating values indicate a 200 ppm test suspension was used. (An asterisk “*” next to the rating value indicates a 40 ppm test suspension was used.) The test suspension was sprayed to the point of run-off on wheat seedlings. The following day the seedlings were inoculated with a spore dust of Blumeria graminis f. sp. tritici (also known as Erysiphe graminis f. sp. tritici, the causal agent of wheat powdery mildew) and incubated in a growth chamber at 20° C. for 8 days, after which time visual disease ratings were made. Results for Tests A-G are given in Table A. In the Table, a rating of 100 indicates 100% disease control and a rating of 0 indicates no disease control (relative to the controls). A hyphen (-) indicates no test results.

## Cc1nn(C)c(NCC2CC2)c1-c1ccc(F)cc1Br [Compound 48]
[1]
  Test A rating (disease control): 98%
[2]
  Test C rating (disease control): 68%
[3]
  Test D rating (disease control): 71%
[4]
  Test F rating (disease control): 89%
[5]
  Test G rating (disease control): 0%

## 4-(2-chloro-6-fluorophenyl)-N,1,3-trimethyl-α-(1-methylpropyl)-1H-pyrazole-5-methanamine [Compound 34]
[1]
  Test A rating (disease control): 0%
[2]
  Test C rating (disease control): 99%
[3]
  Test D rating (disease control): 12%
[4]
  Test F rating (disease control): 90%
[5]
  Test G rating (disease control): 0%

## CCCCNc1c(-c2c(F)cc(F)cc2F)c(C)nn1C [Compound 47]
[1]
  Test A rating (disease control): 30%
[2]
  Test C rating (disease control): 95%
[3]
  Test D rating (disease control): 57%
[4]
  Test F rating (disease control): 98%
[5]
  Test G rating (disease control): 0%

## CNC(c1c(-c2c(F)cccc2Cl)c(C)nn1C)C(C)C (stereo not drawn) [Compound 25, 4-(2-chloro-6-fluorophenyl)-N,1,3-trimethyl-α-(1-methylethyl)-1H-pyrazole-5-methanamine]
[1]
  pest or weed control at 200 ppm: 0%
[2]
  pest or weed control at 200 ppm: 100%
[3]
  pest or weed control at 200 ppm: 25%
[4]
  pest or weed control at 200 ppm: 99%
[5]
  pest or weed control at 200 ppm: 99%

## COCCNc1c(-c2c(F)cc(F)cc2F)c(C)nn1C [Compound 54]
[1]
  Test A rating (disease control): 0%
[2]
  Test C rating (disease control): 97%
[3]
  Test D rating (disease control): 92%
[4]
  Test F rating (disease control): 95%
[5]
  Test G rating (disease control): 0%

## Cc1nn(C)c(OC2CCCCC2)c1-c1ccc(F)cc1Cl [Compound 28, 4-(2-chloro-4-fluorophenyl)-5-(cyclohexyloxy)-1,3-dimethyl-1H-pyrazole]
[1]
  pest or weed control at 200 ppm: 95%
[2]
  pest or weed control at 200 ppm: 0%
[3]
  pest or weed control at 200 ppm: 100%
[4]
  pest or weed control at 200 ppm: 58%
[5]
  pest or weed control at 200 ppm: 73%

## Cc1nn(C)c(OCC(C)C)c1-c1ccc(F)cc1Cl [Compound 29]
[1]
  Test A rating (disease control): 0%
[2]
  Test C rating (disease control): 100%
[3]
  Test D rating (disease control): 63%
[4]
  Test F rating (disease control): 99%
[5]
  Test G rating (disease control): 0%

## CCCCNc1c(-c2ccc(F)cc2Br)c(C)nn1C [Compound 36]
[1]
  Test A rating (disease control): 67%
[2]
  Test C rating (disease control): 100%
[3]
  Test D rating (disease control): 50%
[4]
  Test F rating (disease control): 100%
[5]
  Test G rating (disease control): 0%

## CCCCN(CCCC)c1c(-c2ccc(F)cc2Br)c(C)nn1C [Compound 37]
[1]
  Test A rating (disease control): 0%
[2]
  Test C rating (disease control): 99%
[3]
  Test D rating (disease control): 0%
[4]
  Test F rating (disease control): 99%
[5]
  Test G rating (disease control): 0%

## CSC(c1c(-c2c(F)cccc2Cl)c(C)nn1C)C(C)C (stereo not drawn) [Compound 26, 4-(2-chloro-6-fluorophenyl)-1,3-dimethyl-5-[2-methyl-1-(methylthio)propyl]-1H-pyrazole]
[1]
  pest or weed control at 200 ppm: 0%
[2]
  pest or weed control at 200 ppm: 99%
[3]
  pest or weed control at 200 ppm: 3%
[4]
  pest or weed control at 200 ppm: 98%
[5]
  pest or weed control at 200 ppm: 0%

## Cc1nn(C)c(OCC2CC2)c1-c1ccc(F)cc1Cl [Compound 27, 4-(2-chloro-4-fluorophenyl)-5-(cyclopropylmethoxy)-1,3-dimethyl-1H-pyrazole]
[1]
  pest or weed control at 200 ppm: 99%
[2]
  pest or weed control at 200 ppm: 69%
[3]
  pest or weed control at 200 ppm: 100%
[4]
  pest or weed control at 200 ppm: 9%
[5]
  pest or weed control at 200 ppm: 0%

## Cc1nn(C)c(NC(C)C)c1-c1ccc(F)cc1Br [Compound 38]
[1]
  Test A rating (disease control): 100%
[2]
  Test C rating (disease control): 100%
[3]
  Test D rating (disease control): 46%
[4]
  Test F rating (disease control): 100%
[5]
  Test G rating (disease control): 0%

## Cc1nn(C)c(OC(C)C)c1-c1ccc(F)cc1Cl [Compound 31]
[1]
  Test A rating (disease control): 0%
[2]
  Test C rating (disease control): 0%
[3]
  Test D rating (disease control): 0%
[4]
  Test F rating (disease control): 22%
[5]
  Test G rating (disease control): 0%

## COCCNc1c(-c2ccc(F)cc2Br)c(C)nn1C [Compound 45]
[1]
  Test A rating (disease control): 9%
[2]
  Test C rating (disease control): 77%
[3]
  Test D rating (disease control): 0%
[4]
  Test F rating (disease control): 68%
[5]
  Test G rating (disease control): 0%

## Cc1nn(C)c(N2CCOCC2)c1-c1ccc(F)cc1Cl [Compound 40, 4-[4-(2-chloro-4-fluorophenyl)-1,3-dimethyl-1H-pyrazol-5-yl]morpholine]
[1]
  pest or weed control at 200 ppm: 100%
[2]
  pest or weed control at 200 ppm: 0%
[3]
  pest or weed control at 200 ppm: 100%
[4]
  pest or weed control at 200 ppm: 99%
[5]
  pest or weed control at 200 ppm: 94%

## CCC(C)C(SC)c1c(-c2c(F)cccc2Cl)c(C)nn1C (stereo not drawn) [Compound 35, 4-(2-chloro-6-fluorophenyl)-1,3-dimethyl-5-[2-methyl-1-(methylthio)butyl]-1H-pyrazole]
[1]
  pest or weed control at 200 ppm: 0%
[2]
  pest or weed control at 200 ppm: 0%
[4]
  pest or weed control at 200 ppm: 0%
[5]
  pest or weed control at 200 ppm: 69%

## COCCN(CCOC)c1c(-c2c(F)cc(F)cc2F)c(C)nn1C [Compound 51]
[1]
  Test A rating (disease control): 82%
[2]
  Test C rating (disease control): 100%
[4]
  Test F rating (disease control): 99%
[5]
  Test G rating (disease control): 55%

## Cc1nn(C)c(NCC(C)C)c1-c1c(F)cc(F)cc1F [Compound 53]
[1]
  Test A rating (disease control): 95%
[2]
  Test C rating (disease control): 100%
[4]
  Test F rating (disease control): 100%
[5]
  Test G rating (disease control): 81%
